Results: US20060280723A1 (priority 2003, published 2006)
Where two headings read alike, the source gives them in different places.

Legend:
SARS-HCoV [1] = conditions: Lee et al., 2003 and Poutanen et al.; cited from earlier work
Vero E6 cells [2] = test: Cytotoxicity on Vero E6 cells without viral challenge; format: cell-based, African Green Monkey; conditions: three days, inverted microscope
Procedure: To determine cytotoxicity, 100 microlitres of serial 10-fold dilutions of each treatment were incubated with 100 microlitres of Vero E6 cells giving a final cell count of 20,000 cells per well in a 96-well plate, without viral challenge.

SARS-HCoV 2003VA2774 = format: cell-based, SARS human coronavirus (SARS-HCoV)
SARS-HCoV [3] = conditions: literature; cited from earlier work
[4] = tested on: SARS-HCoV, strain Frankfurt-1
Semliki Forest Virus = test: Protection of Vero E6 cells from Semliki Forest Virus cytopathic effect (crystal violet); format: cell-based, Semliki Forest Virus (SFV)
Procedure: Vero E6 cells were seeded in 96-well plate, at a density of 10000 cells per well. […] Media was removed from cells, and cells were washed in 1× PBS, then fixed for 10 minutes at room temperature in 4% paraformaldehyde in PBS. Paraformaldehyde was removed and cells were stained with 0.2% crystal violet in 2% ethanol for 10 minutes at room temperature. Stained plates were washed and degree of colouration was quantified at 630 nm using an ELISA reader. Triplicate data is presented in graph format (FIG. 2).

Vero E6 cells [5] = tested on: Vero E6 cells
[6] = tested on: 'common cold' coronaviruses; conditions: laboratory tests; cited from earlier work
[7] = 10^4 pfu/well, MOI 0.5, Vero E6 cells

## CCOC(=O)C1=C[C@@H](OC(CC)CC)[C@H](NC(C)=O)[C@@H](N)C1 [Oseltamivir]
SARS-HCoV [1]
  Therapeutic benefit in SARS-HCoV infection: has not shown any therapeutic benefit

## NC(=O)c1ncn([C@@H]2O[C@H](CO)[C@@H](O)[C@H]2O)n1 [Ribavirin]
Vero E6 cells [2]
  Cytotoxicity at inhibitory concentration: showed cytotoxicity
SARS-HCoV 2003VA2774; [7]
  CIA100 (reached: Yes): Yes
  Concentration at which complete cytopathic effect: 5,000 μg/ml
SARS-HCoV 2003VA2774; cytopathic endpoint assay, Vero E6 cells
  Inhibition of cytopathic effect: inhibitory activity at all viral titres
SARS-HCoV 2003VA2774; high viral challenge 10^4 pfu/well, MOI 0.5
  Inhibition of cytopathic effect: Complete inhibition
SARS-HCoV 2003VA2774; virus load 100 pfu/well
  CIA100 (concentration inhibiting cytopathic effect in all four set-ups): 500 µg/mL
SARS-HCoV 2003VA2774; virus load 1,000 pfu/well
  CIA100 (concentration inhibiting cytopathic effect in all four set-ups): 5,000 μg/ml
SARS-HCoV [3]
  Efficacy against SARS-HCoV in vitro: negative results

## Intron A: recombinant alpha IFN product from Schering Plough (IFN-alpha 2b)
[4]
  IC50 Exp. Type 1, 10 TCID50: >3.125 IU/ml
  IC50 Exp. Type 1, 100 TCID50: >3.125 IU/ml
  IL50 Exp. Type 2, 10 TCID50: >3.125 IU/ml
  IL50 Exp. Type 2, 100 TCID50: >3.125 IU/ml
Semliki Forest Virus; at 39 IU/ml
  Loss of protection: equivalent loss of protection
Semliki Forest Virus; at 625 IU/ml
  Degree of protection: same degree of protection
SARS-HCoV 2003VA2774
  Concentration up to which cells were not fully protected from SARS-HCoV infection: > 100000 IU/ml
  Inhibition of cytopathic effect: did not show significant inhibition
Vero E6 cells [5]
  Tendency to increase baseline levels in the cytotoxicity assay: no similar tendency

B1: Cystatin C: a protease inhibitor found in human blood (protein, UniProt P01034 27-146, looked up)
Cystatin-C: SSPGKPPRLVGGPMDASVEEEGVRRALDFAVGEYNKASNDMYHSRALQVVRARKQIVAGVNYFLDVELGRTTCTKTQPNLDNCPFHDQPHLKRKAFCSFQIYAVPWQGTMTLSKSTCQDA
[6]
  Replication of 'common cold' coronaviruses: found to block replication
